From ChEMBL document CHEMBL1201862, “PubChem BioAssay data set” (2004)
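Interpolation was linear, between the two tested concentrations surrounding the appropriate level; five concentrations were tested over 48 hours in 96-well plates. GI50: concentration for 50% inhibition of growth.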 Calls of active or inactive are those of the source. Cut-off read from the data, not from the text of the source: active = GI50 up to about 1.1 µM and inactive = higher.

Key:
Experiment in all cases: NCI-60 cell line screen, 48 h
XF498 = system: XF498
LXFL 529 = system: LXFL 529
RXF 631 = system: RXF 631
HOP-18 = system: HOP-18
M19-MEL = system: M19-MEL
DMS-273 = system: DMS-273
DMS-114 = system: DMS-114
SNB-78 = system: SNB-78
KM-20L2 = system: KM-20L2

## COc1ccc2c(c1)c1ccc3c(c1n2C)C(=O)C=CC3=O
XF498
  GI50: 17.2 µM (inactive)
LXFL 529
  GI50: 14.1 µM (inactive)
RXF 631
  GI50: 20 µM (inactive)
HOP-18
  GI50: 12.2 µM (inactive)
M19-MEL
  GI50: 25.4 µM (inactive)
DMS-273
  GI50: 24.3 µM (inactive)
DMS-114
  GI50: 20.7 µM (inactive)
SNB-78
  GI50: 20.9 µM (inactive)
KM-20L2
  GI50: 38.5 µM (inactive)

## COc1ccc(/C=C2\CCCCC2=O)cc1
XF498
  GI50: > 100 µM (inactive)
LXFL 529
  GI50: > 100 µM (inactive)
HOP-18
  GI50: > 100 µM (inactive)
M19-MEL
  GI50: > 100 µM (inactive)
DMS-273
  GI50: > 100 µM (inactive)
DMS-114
  GI50: > 100 µM (inactive)
SNB-78
  GI50: > 100 µM (inactive)
KM-20L2
  GI50: > 100 µM (inactive)

## [O-]c1c2cc(-[n+]3c(-c4ccccc4)cc(-c4ccccc4)cc3-c3ccccc3)cc1COCCOCCOCCOCCOC2
LXFL 529
  GI50: 21.2 µM (inactive)
HOP-18
  GI50: 57.3 µM (inactive)
M19-MEL
  GI50: 30.8 µM (inactive)
DMS-273
  GI50: 45.9 µM (inactive)
KM-20L2
  GI50: 31.3 µM (inactive)

## O=c1[nH]c2cc([N+](=O)[O-])ccc2nc1/C(=N/Nc1ccccc1)C(O)c1ccccc1Cl (centres undefined)
XF498
  GI50: > 100 µM (inactive)
LXFL 529
  GI50: 28.1 µM (inactive)
M19-MEL
  GI50: 52.8 µM (inactive)
DMS-273
  GI50: 34.8 µM (inactive)
DMS-114
  GI50: 6.75 µM (inactive)
SNB-78
  GI50: > 100 µM (inactive)
KM-20L2
  GI50: 14.9 µM (inactive)

## COc1cccc(C2c3cc4c(cc3OC(O)(CO)C2C(=O)O)OCO4)c1.COc1cccc(C2c3cc4c(cc3OC3(O)COC(=O)C23)OCO4)c1 (centres undefined)
LXFL 529
  GI50: 57.9 µM (inactive)
RXF 631
  GI50: 75.5 µM (inactive)
HOP-18
  GI50: > 100 µM (inactive)
M19-MEL
  GI50: 76.9 µM (inactive)
DMS-273
  GI50: 65.3 µM (inactive)
DMS-114
  GI50: 49.4 µM (inactive)
KM-20L2
  GI50: > 100 µM (inactive)

## N#CC(C(=N/NC(N)=S)/C(=N\NC(N)=S)C(C#N)c1ccccc1)c1ccccc1 (centres undefined)
XF498
  GI50: > 10 µM (inactive)
LXFL 529
  GI50: > 10 µM (inactive)
RXF 631
  GI50: > 10 µM (inactive)
HOP-18
  GI50: > 10 µM (inactive)
M19-MEL
  GI50: > 10 µM (inactive)
DMS-273
  GI50: > 10 µM (inactive)
DMS-114
  GI50: > 10 µM (inactive)
SNB-78
  GI50: > 10 µM (inactive)
KM-20L2
  GI50: > 10 µM (inactive)

## O=[N+]([O-])c1ccc(-c2ccc(/C=N/n3c(S)nnc3-c3ccc(Cl)cc3)o2)cc1
XF498
  GI50: 19.5 µM (inactive)
LXFL 529
  GI50: 22.5 µM (inactive)
RXF 631
  GI50: > 37.4 µM (inactive)
HOP-18
  GI50: > 100 µM (inactive)
M19-MEL
  GI50: 21.1 µM (inactive)
DMS-273
  GI50: 22.9 µM (inactive)
DMS-114
  GI50: 95.3 µM (inactive)
SNB-78
  GI50: > 50.6 µM (inactive)
KM-20L2
  GI50: 28 µM (inactive)

## O=[N+]([O-])c1cccc(C2=NN(c3ccccc3)C3c4ccccc4OCC23)c1 (centres undefined)
XF498
  GI50: > 100 µM (inactive)
LXFL 529
  GI50: > 100 µM (inactive)
RXF 631
  GI50: > 100 µM (inactive)
HOP-18
  GI50: > 100 µM (inactive)
M19-MEL
  GI50: > 100 µM (inactive)
DMS-273
  GI50: > 100 µM (inactive)
DMS-114
  GI50: > 100 µM (inactive)
SNB-78
  GI50: > 100 µM (inactive)
KM-20L2
  GI50: > 100 µM (inactive)

## Cc1ccc(Nc2nc(-c3ccc(-c4ccc([N+](=O)[O-])cc4)o3)cs2)cc1
LXFL 529
  GI50: 29.3 µM (inactive)
M19-MEL
  GI50: 51.2 µM (inactive)
DMS-273
  GI50: 42.6 µM (inactive)
SNB-78
  GI50: 66.5 µM (inactive)
KM-20L2
  GI50: 29.6 µM (inactive)

## Cc1cc(Br)ccc1NC1=CC(=O)C(=O)c2ccccc21
XF498
  GI50: 31.6 µM (inactive)
LXFL 529
  GI50: 55.7 µM (inactive)
HOP-18
  GI50: 16 µM (inactive)
M19-MEL
  GI50: 15.2 µM (inactive)
DMS-273
  GI50: 31.4 µM (inactive)
DMS-114
  GI50: 19.8 µM (inactive)
SNB-78
  GI50: > 100 µM (inactive)
KM-20L2
  GI50: > 100 µM (inactive)

## Cc1cc(N(CCC#N)CCC#N)ccc1/C=C/C(=O)Nc1cccc(Cl)c1
XF498
  GI50: > 100 µM (inactive)
LXFL 529
  GI50: 29.7 µM (inactive)
RXF 631
  GI50: > 100 µM (inactive)
M19-MEL
  GI50: > 100 µM (inactive)
DMS-273
  GI50: > 100 µM (inactive)
DMS-114
  GI50: > 100 µM (inactive)
KM-20L2
  GI50: 87.1 µM (inactive)

## C/C(CC(=O)Nc1cc(C)ccc1C)=N/N=C(N)N
XF498
  GI50: > 100 µM (inactive)
LXFL 529
  GI50: > 100 µM (inactive)
M19-MEL
  GI50: > 100 µM (inactive)
DMS-273
  GI50: > 100 µM (inactive)
DMS-114
  GI50: > 100 µM (inactive)
SNB-78
  GI50: > 100 µM (inactive)
KM-20L2
  GI50: > 100 µM (inactive)

## O=C(O)C#CCO
XF498
  GI50: > 100 µM (inactive)
LXFL 529
  GI50: > 100 µM (inactive)
RXF 631
  GI50: > 100 µM (inactive)
M19-MEL
  GI50: > 100 µM (inactive)
DMS-273
  GI50: > 100 µM (inactive)
DMS-114
  GI50: > 100 µM (inactive)
SNB-78
  GI50: > 100 µM (inactive)

## N=C(N)NS(=O)(=O)c1ccc(NC(=O)c2cccc3c(Nc4ccc(S(=O)(=O)N=C(N)N)cc4)c4ccc(Cl)cc4nc23)cc1
XF498
  GI50: 67.3 µM (inactive)
LXFL 529
  GI50: 33 µM (inactive)
HOP-18
  GI50: > 100 µM (inactive)
DMS-273
  GI50: > 100 µM (inactive)
DMS-114
  GI50: 31.2 µM (inactive)
SNB-78
  GI50: 81.3 µM (inactive)
KM-20L2
  GI50: 74.8 µM (inactive)

## CN(C)CCCN1N=Nc2cccc3cccc1c23
XF498
  GI50: 86.9 µM (inactive)
LXFL 529
  GI50: > 50.9 µM (inactive)
RXF 631
  GI50: 87.5 µM (inactive)
HOP-18
  GI50: 99.3 µM (inactive)
M19-MEL
  GI50: > 51.4 µM (inactive)
DMS-273
  GI50: 19.4 µM (inactive)
DMS-114
  GI50: > 42.1 µM (inactive)
SNB-78
  GI50: 62.4 µM (inactive)
KM-20L2
  GI50: 54.3 µM (inactive)

## CC(Cn1c2c3ccccc3ccc2c2oc(=O)c3ccccc3c21)N(C)C (centres undefined)
XF498
  GI50: > 100 µM (inactive)
LXFL 529
  GI50: > 100 µM (inactive)
DMS-114
  GI50: > 100 µM (inactive)
SNB-78
  GI50: > 100 µM (inactive)
KM-20L2
  GI50: > 100 µM (inactive)

## CCC(/C=C/C1OC(=O)C=CC1C)=C\C(C)C/C=C/C(C)=C/C(C)C(=O)C(C)C(O)C(C)C/C(C)=C/C(=O)O (centres undefined)
HOP-18
  GI50: 6.04 µM (inactive)
M19-MEL
  GI50: 1.16 µM (inactive)
DMS-273
  GI50: 1.1 µM (active)
DMS-114
  GI50: 0.847 µM (active)
SNB-78
  GI50: 3.21 µM (inactive)
KM-20L2
  GI50: 4.13 µM (inactive)

## Nc1ncnc2c1ncn2CCCC(c1ccccc1)P(=O)(O)O (centres undefined)
XF498
  GI50: > 100 µM (inactive)
LXFL 529
  GI50: > 100 µM (inactive)
M19-MEL
  GI50: > 100 µM (inactive)
DMS-273
  GI50: > 100 µM (inactive)
DMS-114
  GI50: > 100 µM (inactive)
SNB-78
  GI50: > 100 µM (inactive)
KM-20L2
  GI50: > 100 µM (inactive)

## O=S(O)CCCSSCCCCSSCCCS(=O)O
XF498
  GI50: > 100 µM (inactive)
LXFL 529
  GI50: > 100 µM (inactive)
HOP-18
  GI50: > 100 µM (inactive)
M19-MEL
  GI50: > 100 µM (inactive)
DMS-273
  GI50: > 100 µM (inactive)
DMS-114
  GI50: > 100 µM (inactive)
SNB-78
  GI50: > 100 µM (inactive)
KM-20L2
  GI50: > 100 µM (inactive)

## COC(=O)C(c1ccc(OC)cc1)N1C(=O)[C@@H](NC(=O)c2ccccc2)[C@H]1[C@@H](C)O (some centres undefined)
XF498
  GI50: > 100 µM (inactive)
LXFL 529
  GI50: > 100 µM (inactive)
M19-MEL
  GI50: > 100 µM (inactive)
DMS-273
  GI50: > 100 µM (inactive)
SNB-78
  GI50: > 100 µM (inactive)
KM-20L2
  GI50: > 100 µM (inactive)

## CC(=O)OCC1OC(OC2CC3C(C)(C)C(OC(C)=O)CC[C@]3(C)C3CCC45CC4(CC[C@H]5C(C)CC(O)C4OC4(C)C)[C@]23C)C(O)C(O)C1O (some centres undefined)
XF498
  GI50: 1.53 µM (inactive)
LXFL 529
  GI50: 3.11 µM (inactive)
RXF 631
  GI50: 2.32 µM (inactive)
HOP-18
  GI50: 2.2 µM (inactive)
M19-MEL
  GI50: 1.93 µM (inactive)
DMS-273
  GI50: 1.99 µM (inactive)
DMS-114
  GI50: 1.58 µM (inactive)
SNB-78
  GI50: 5.71 µM (inactive)
KM-20L2
  GI50: 1.85 µM (inactive)

## COC(OC)[C@@H](C)[C@H](O)[C@](C)(O)C1OC(C)(C)OC(C(C)C=C(C)C)C1C (some centres undefined)
XF498
  GI50: > 100 µM (inactive)
LXFL 529
  GI50: > 100 µM (inactive)
HOP-18
  GI50: > 100 µM (inactive)
M19-MEL
  GI50: > 100 µM (inactive)
DMS-273
  GI50: > 100 µM (inactive)
DMS-114
  GI50: 94.6 µM (inactive)
SNB-78
  GI50: > 100 µM (inactive)
KM-20L2
  GI50: > 100 µM (inactive)

## CC1(C)CC[C@]2(C(=O)O)CCC3(C)C(=CCC4[C@@]5(C)CC[C@H](OC6OCC(O)C(O)C6OC6OC(CO)C(O)C(O)C6O)C(C)(C)C5CC[C@]43C)C2C1 (some centres undefined)
XF498
  GI50: 1.94 µM (inactive)
LXFL 529
  GI50: 1.9 µM (inactive)
RXF 631
  GI50: 1.74 µM (inactive)
HOP-18
  GI50: 1.95 µM (inactive)
M19-MEL
  GI50: 1.83 µM (inactive)
DMS-273
  GI50: 2.06 µM (inactive)
DMS-114
  GI50: 2.04 µM (inactive)
SNB-78
  GI50: 2.76 µM (inactive)
KM-20L2
  GI50: 2.02 µM (inactive)

## COc1ccc2c(=O)c(-c3cc(OC)c(OC)cc3OC)coc2c1
XF498
  GI50: 2.58 µM (inactive)
LXFL 529
  GI50: 6.27 µM (inactive)
RXF 631
  GI50: 5.4 µM (inactive)
M19-MEL
  GI50: 4.15 µM (inactive)
DMS-273
  GI50: 1.85 µM (inactive)
DMS-114
  GI50: 3.02 µM (inactive)
SNB-78
  GI50: 4.21 µM (inactive)
KM-20L2
  GI50: 2.05 µM (inactive)
